Assay results: ChEMBL document CHEMBL3808352, “Pyrazolylamine Derivatives Reveal the Conformational Switching between Type I and Type II Binding Modes of Anaplastic Lymphoma Kinase (ALK)” (J Med Chem, 2016)

Experiment: Lipophilicity, log P of the compound
Assay type: physicochemical
Details: octanol/water

logP | Compound
4.54 | Cc1cc(-c2cc(NC(=O)c3ccc(CN4CCN(C)CC4)cc3)[nH]n2)ccc1NC(=O)Nc1cc(C(C)(C)C)on1
2.61 | Cc1cc(-c2cc(NC(=O)c3ccc(CN4CCN(C)CC4)cc3)[nH]n2)ccc1N
